Data reported in patent publication US12559573B2, “Biotin-specific monoclonal antibody and use thereof” (Roche Diagnostics Operations, Inc., priority 2016, dated 2026).

Experiment: Biotin interference in Elecsys TSH sandwich assay
Conditions: control reagent without anti-biotin antibody
Description: The control sample for the Elecsys TSH assay, PreciControl Universal 2 is spiked with rising concentrations of biotin (e.g. 0, 100 and 200 ng/mL final concentration of biotin). Reagent 2 of the Elecsys TSH sales kit containing the anti TSH detection-antibody is used in a unmodified version (control), and a modified version, additionally containing 300 μg/mL of an monoclonal anti Biotin antibody according to the invention. The sandwich assay is performed according to the routine assay protocol for the Elecsys TSH assay: Shortly, 50 μL of Sample (PreciControl Universal 2 with or without biotin) are incubated with 60 μL of Reagent 1 of the Elecsys TSH kit containing the biotinylated anti-TSH antibody and 50 μL of Reagent 2 containing the ruthenylated anti-TSH antibody with or without further addition of 300 μg/mL of the monoclonal anti Biotin antibody. After incubation at 37° C. for 9 min, 40 μL suspension of streptavidin coated magnetic beads of the Elecsys TSH kit are added, the reaction is incubated for another 9 min and finally the reaction mixture is aspirated into the measuring cell where the microparticles are magnetically captured onto the surface of the electrode. Unbound substances are then removed with ProCell. Application of a voltage to the electrode then induces electrochemiluminescense-based emission of light which is measured by a photomultiplier.

O=C(O)CCCC[C@@H]1SC[C@@H]2NC(=O)N[C@@H]21 [biotin, 5-[(3aS,4S,6aR)-2-oxo-1,3,3a,4,6,6a-hexahydrothieno[3,4-d]imidazol-4-yl]pentanoic acid]
Signal relative to reference signal (sample without biotin) (100 ng/mL biotin in sample): 53% | Signal relative to reference signal (sample without biotin) (200 ng/mL biotin in sample): 16%
